The source of these data is ChEMBL document CHEMBL3046421, “Transition metals in organic synthesis - Part 83#: Synthesis and pharmacological potential of carbazoles” (Med Chem Res, 2008).

By IC50 is commonly meant the concentration that gives 50% inhibition. Usually MIC90 stands for the lowest concentration that inhibits either 90% of growth or 90% of the strains tested, depending on the study.

Each structure is given as a SMILES string. Converted amounts (≈) assume the structure as drawn. Bounds are passed on as bounds.

One series concerns Vero. The series can be described thus: Cytotoxicity against Chlorocebus aethiops (African green monkey) Vero cells. Format: cell-based. The following applies: Chlorocebus sabaeus.
A short description of series [1]: Selectivity index, ratio of IC50 for african green monkey Vero cells to MIC90 for Mycobacterium tuberculosis H37Rv. Type of series: toxicity, cell-based. The following applies: read-out: Selectivity Index.
The subject of series [2] is Mycobacterium tuberculosis. The series can be described thus: Antimycobacterial activity against Mycobacterium tuberculosis H37Rv by microplate alamar blue assay. Type of series: functional.
The target in series [3] is T1, Polyunsaturated fatty acid 5-lipoxygenase (Rattus norvegicus, UniProt P12527).
T1 sequence (P12527 whole entry): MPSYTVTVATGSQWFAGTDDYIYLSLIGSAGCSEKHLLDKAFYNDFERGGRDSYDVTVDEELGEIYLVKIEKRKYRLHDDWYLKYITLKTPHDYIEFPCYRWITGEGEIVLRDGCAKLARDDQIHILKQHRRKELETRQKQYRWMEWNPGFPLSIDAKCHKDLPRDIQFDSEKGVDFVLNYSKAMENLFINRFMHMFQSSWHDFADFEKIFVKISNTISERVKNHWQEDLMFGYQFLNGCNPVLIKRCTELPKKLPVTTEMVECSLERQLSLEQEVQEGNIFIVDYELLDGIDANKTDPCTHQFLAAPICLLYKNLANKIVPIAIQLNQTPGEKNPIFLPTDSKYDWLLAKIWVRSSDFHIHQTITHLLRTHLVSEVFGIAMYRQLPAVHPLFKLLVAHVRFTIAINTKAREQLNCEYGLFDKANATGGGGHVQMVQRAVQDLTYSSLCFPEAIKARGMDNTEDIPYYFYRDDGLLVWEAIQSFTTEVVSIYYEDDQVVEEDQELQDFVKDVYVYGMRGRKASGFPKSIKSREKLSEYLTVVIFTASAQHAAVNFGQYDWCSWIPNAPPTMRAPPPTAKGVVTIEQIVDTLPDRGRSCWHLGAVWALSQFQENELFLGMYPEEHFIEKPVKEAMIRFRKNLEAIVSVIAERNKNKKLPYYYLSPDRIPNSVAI
The series can be described thus: Inhibition of Rattus norvegicus (rat) 5-lipoxygenase.

Series [4] relates to Mycobacterium tuberculosis. Briefly: Antimycobacterial activity against Mycobacterium tuberculosis H37Ra. Format: functional.
Another series relates to Plasmodium falciparum. The series can be described thus: Antiplasmodial activity against Plasmodium falciparum. Format: functional, organism-based.
For series [5], the system named is Mycobacterium tuberculosis. Briefly: Antimycobacterial activity against Mycobacterium tuberculosis H37Rv. Type of series: functional.
The next series has as its system Brain. Briefly: Inhibition of free-radical-induced lipid peroxidation in Rattus norvegicus (rat) brain homogenates. Format: functional, tissue-based.

`COC1=C(C)C(=O)c2[nH]c3ccccc3c2C1=O` [3-METHOXY-2-METHYLCARBAZOLE-1,4-QUINONE] came in with a concentration for half-maximal inhibition (IC50) with Vero greater than 128 µM. Moreover, the selectivity ratio in series [1] is greater than 16. This compound yielded an MIC90 in series [2] of 8 µM (≈ 1.93 µg/mL).
Compound `COc1ccc2[nH]c3ccc(C)cc3c2c1` [GLYCOZOLINE] gave an MIC90 in series [2] greater than 128 µM.
In series [3], `CC[C@H](C)CCC1(C)OC1c1c(C)c(O)cc2c1[nH]c1c(O)ccc(CO)c12` (stereo partly specified) [EPOCARBAZOLIN B] showed a concentration for half-maximal inhibition (IC50) of 2.6 µM.
`CC(C)=CCc1cc2c(cc1O)[nH]c1ccc(C)cc12` [SIAMENOL] displayed an IC50 in the series with Vero of 15 µM. In addition, in series [1], the selectivity ratio is 0.7. Moreover, in series [2], the MIC90 amounted to 22 µM (≈ 5.84 µg/mL).
Taken in the same sequence, the figures for `COc1ccc2c(c1)[nH]c1cc(OC)c(C=O)cc12` [LANSINE] were 96 µM, less than 0.8 and greater than 128 µM.
As to `COc1ccc2c(c1)[nH]c1ccc(C)cc12` [7-METHOXY-3-METHYLCARBAZOLE], the MIC90 in series [2] was greater than 128 µM.
As to `COc1ccc2c(c1)[nH]c1cc(OC)c(C)cc12`, the IC50 with Vero is greater than 128 µM. Besides, the MIC90 in series [2] was greater than 128 µM.
`COc1ccc2c(c1)[nH]c1cc(OC)c(C(=O)O)cc12` [CLAUSINE K] showed an IC50 with Vero of 25 µM. For the same compound, the selectivity ratio in series [1] is less than 0.2. Besides, the MIC90 is greater than 128 µM in series [2] and 100 µg/mL (≈ 369 µM) in series [4].
In turn, `Cc1ccc2[nH]c3ccc(O)cc3c2c1` [GLYCOZOLININE] came in with an IC50 with Vero of 57 µM. For the same compound, the selectivity ratio in series [1] was determined as 0.5. The MIC90 in series [2] was 123 µM (≈ 24.3 µg/mL).
Regarding `Cc1ccc2[nH]c3ccc4occc4c3c2c1` [EUSTIFOLINE-D], the half-maximal inhibitory concentration (IC50) in the series with Vero was greater than 128 µM. This compound displayed an MIC90 in series [2] greater than 128 µM.
As for `COC(=O)c1ccc2[nH]c3cc(O)ccc3c2c1` [CLAUSINE M], in the series on Vero, inhibition was half-maximal at 35 µM (IC50). The selectivity ratio in series [1] was 1.8. This compound yielded an MIC90 in series [2] of 19 µM (≈ 4.58 µg/mL).
For `COc1c(C)c(C[C@@H](C)OC(C)=O)c2[nH]c3ccc(Br)cc3c2c1OC(C)=O`, in that order: 25 µM, 0.5 and 55 µM (≈ 24.7 µg/mL).
In the series with Plasmodium falciparum, `COC(=O)c1cc2c(cc1OC)[nH]c1cc(OC)ccc12` [CLAUSZOLINE C] registered a half-inhibitory concentration (IC50) of 5.5 µg/mL (≈ 19.3 µM).
For `COC(=O)c1ccc2[nH]c3ccc(OC)cc3c2c1`, in the series with Vero, the 50% inhibitory concentration (IC50) was greater than 128 µM. Besides, the selectivity ratio in series [1] is greater than 4. In addition, in series [2], the MIC90 was found to be 32 µM (≈ 8.17 µg/mL).
Regarding `COc1ccc2[nH]c3ccc(C=O)cc3c2c1`, the IC50 in the series on Vero is greater than 128 µM. Moreover, the selectivity ratio in series [1] was greater than 1.3. Besides, the MIC90 in series [2] stood at 99 µM (≈ 22.3 µg/mL); in series [5], 15.6 µg/mL (≈ 69.3 µM).
Consider `O=Cc1cc2c(cc1O)[nH]c1cc(O)ccc12` [CLAUSINE O], for which, in the series on Vero, the midpoint of inhibition, the IC50, lay at 114 µM. For the same compound, in series [1], the selectivity ratio worked out at 1.3. The MIC90 in series [2] is 89 µM (≈ 20.2 µg/mL).
Taken in the same sequence, the figures for `NNC(=O)c1ccncc1` [ISONIAZID] were greater than 128 µM, greater than 320 and 0.4 µM (≈ 0.0549 µg/mL).
`COC(=O)c1ccc2[nH]c3cc(OC)ccc3c2c1` [CLAUSINE C] yielded an MIC90 in series [2] greater than 128 µM.
`COc1ccc2c(c1)[nH]c1ccc(C(=O)O)cc12` [CLAUSINE N] displayed an MIC90 in series [2] greater than 128 µM.
In the series with Vero, `COc1ccc2[nH]c3ccc(C=O)cc3c2c1Br` [5-BROMO-3-FORMYL-6-METHOXYCARBAZOLE] came in with an IC50 of 78 µM. In addition, the selectivity ratio in series [1] is less than 0.6. In addition, the MIC90 in series [2] is greater than 128 µM.
`COc1ccc2c(c1)[nH]c1ccc(C=O)cc12` [CLAUSZOLINE K] had an MIC90 in series [2] greater than 128 µM.
Regarding `CO[C@H]1/C=C/O[C@@]2(C)Oc3c(C)c(O)c4c(O)c(c(/C=N/N5CCN(C)CC5)c(O)c4c3C2=O)NC(=O)/C(C)=C\C=C\[C@H](C)[C@H](O)[C@@H](C)[C@@H](O)[C@@H](C)[C@H](OC(C)=O)[C@@H]1C` [RIFAMPIN], in the series on Vero, 105 µM corresponded to half-maximal inhibition (IC50). Besides, the selectivity ratio in series [1] was determined as 1170. The MIC90 in series [2] was 0.09 µM (≈ 0.0741 µg/mL).
`COc1c(C)c(C[C@@H](C)O)c2[nH]c3ccc(CC=C(C)C)cc3c2c1O` [(R)-(-)-NEOCARAZOSTATIN B]: in the series on Brain, the concentration for half-maximal inhibition (IC50) was 0.39 µM.
For the compound `Cc1c(O)cc2c([nH]c3c(O)ccc(CO)c32)c1C1OC1(C)CCC(C)C` (racemic) [RAC-EPOCARBAZOLIN A], the IC50 in series [3] worked out at 2.4 µM.
For `CC(C)=CCc1c(O)ccc2[nH]c3ccc(C=O)cc3c12` [MICROMELINE], the MIC90 in series [2] was greater than 128 µM; in series [5], 31.5 µg/mL (≈ 113 µM).
